Laboratory results from US20050124618A1, “Methods of modulating angiogenesis and cancer cell proliferation” (priority 2003, published 2005).
Entries after “also recorded” stand apart in the source; their conditions may differ.

Key:
20-HETE = conditions: cited from earlier work
U251 human glioma cells = assay: U251 cell proliferation assay (cell counting); type: cell-based; conditions: for increase of U251 cell proliferation: 1 μM agonist, 48 hr, serum-starved
Method: Culture Conditions: Cells were routinely maintained in DMEM (Invitrogen) supplemented with 10% heat-inactivated fetal bovine serum (FBS), penicillin (10 IU/ml), streptomycin (10 μg/ml) and 10% non-essential amino acids (all purchased from Invitrogen). Cells were maintained at 37° C. in a humidified incubator containing 5% CO2. They were grown in medium containing 10% FBS, which was then replaced with serum-free medium where U251 cells grow exponentially. Treatments were initiated one day after serum removal.
Cell Proliferation Assays: Proliferation studies were performed with cultures plated at a density that ensured exponential growth for at least 5 days. Growth medium was generally replaced by serum-free medium 24 hr after plating. Cells were treated with various concentrations of a given compounds for 24 or 48 hr as described in the Methods. […] Organic solvent never exceeded 0.1% of total culture volume. Cells were harvested by exposure to 0.05% trypsin/EDTA and counted using a hemocytometer.

9L rat gliosarcoma cells = assay: 9L cell proliferation assay (cell counting); type: cell-based
Method: Culture Conditions: 9L rat gliosarcoma cells were purchased from ATC (Gaithersburg, Md.) and were maintained in DMEM (Invitrogen) supplemented with 10% heat-inactivated fetal bovine serum (FBS), penicillin (10 IU/ml), streptomycin (10 μg/ml) and 10% non-essential amino acids (all purchased from Invitrogen). Cells were maintained at 37° C. in a humidified incubator containing 5% CO2. They were grown in medium containing 10% FBS, which was then replaced with serum-free medium (give type and source) where 9L cells grow exponentially.
Cell Proliferation Assays: Proliferation studies were performed with cultures plated at a density that ensured exponential growth for at least 5 days. Growth medium were generally replaced by serum free medium 24 hr after plating. […] The concentration of the ethanol added to the media never exceeded 0.1%. Cells were harvested by exposure to a solution of 0.05% Trypsin/EDTA and counted using a hemocytometer.

HUVECs = HUVECs proliferation assay (CellTiter96 AQueous One); type: cell-based, human
Method: HUVECs were seeded onto a 96-well plate at 1×10^4 cells/well. […] Organic solvent concentration never exceeded 0.1% of total culture volume. […] 20 μl of Aqueous One reagent was added to the 100 μl medium in each well. The plates were incubated for 2 hours at 37° C. in a humidified incubator. Absorbance was recorded at 490 nm using a 96-well Bio Kinetics Reader EL340 (Bio-TEK, Winooski, Vt.). The data represent changes in percent absorbance of treated cultures compared with control cells. Three different experiments were carried out, and each point was determined in triplicate.

rat cornea = assay: Rat cornea pocket angiogenesis assay (growth factor pellets); type: in vivo; conditions: for angiogenic response to growth factor alone: 250 ng growth factor per pellet
Method: (i) Preparation of sustained-release polymer: Sustained-release polymer pellets were prepared by making a 1:1 mix of a 12% solution in ethanol of the polymer (Hydron polyhydroxyethylmethacrylate), with saline containing the growth factors. The growth factors bFGF, VEGF, and EGF were dissolved at a concentration of 125 ng/μl. […] 2 μl of these solutions were added to each pellet. Thus, a pellet containing 250 ng of a single growth factor was implanted at random in the right or left eye. The other eye was implanted with a pellet containing the same dose of growth factor+HET0016. In some rats the pellet contained VEGF alone and VEGF+DDMS. 20 μg of the stable 20-HETE agonist analog WIT003 was implanted in one eye to determine whether it induces angiogenesis. […] 9 μl of the 1:1 Hydron/treatment mixture was placed on the ends of 1.5-cm rods. Each pellet contained 250 ng of its respective growth factor. For bFGF we used sucralfate to stabilize and allow sustained release of this growth factor (Volkin D B et al., Biochim Biophys Acta 1993, 1203:18-26). After drying the pellets for 1 hour, they were ready to be implanted into the cornea of rats.
(ii) Pellet implantation: The rats were anesthetized IM with ketamine (80 mg/kg) and xylazine (10 mg/kg). The eyes were topically anesthetized with 0.5% proparacaine (Ophthetic, Alcon, Tex.) and the globes proptosed with a jeweler's forceps. Using an operating microscope, a central intrastromal linear keratotomy, approximately 1.5 mm in length, was performed with a surgical blade (Bard-Parker #11; Becton Dickinson, Franklin Lake, N.Y.) parallel to the insertion of the lateral rectus muscle. A curved iris spatula (No. 10093-13, Fine Science Tools, Belmont, Calif.) approximately 1.5 mm wide and 5 mm long was inserted under the lip of the incision and gently pushed through the stroma toward the temporal limbus of the eye. The distance between the limbus and the base of the pocket was kept at 1.0±0.1 mm. The pellet was advanced to the temporal end of the pocket. Antibiotic ointment (erythromycin) was applied to the anterior surface of the eye.
(iv) Quantitation of corneal neovascularization: Seven days after pellet implantation, the rats were deeply anesthetized as previously described with ketamine and xylazine. The left ventricle was cannulated and the animal was perfused with 20-25 ml saline through the left ventricle followed by 20-25 ml India ink (waterproof drawing ink, Sanford, Bellwood, Ill.). The eyes were marked for orientation, enucleated and placed in 4% formalin for 24 hours. The cornea was dissected free from the surrounding globe and underlying iris, bisected, and loosely mounted between two glass slides, thus gently flattening the cornea. These flat mounts were examined microscopically using a Nikon Diaphot Epi-fluor 2 microscope attached to a CCD video camera and the images were digitized and saved using a computer.
Neovascularization was determined by comparing total vessel length in the control and experimental eyes. Vessel length was determined by tracing each vessel from the limbus to the pellet. Total length is the sum of these values in pixels and was determined using conventional image analysis software (Sigma Scan Pro, SPSS, Chicago, Ill.)

[1] = up to 40 μg palmitic acid per pellet

In the case of `C#CCCCCCCCCCCCCCCCC(=O)O` [17-ODYA, 17-Octadecynoic acid], the “ability to reduce 20-HETE levels in vivo” value (20-HETE) is given as “reduce 20-HETE levels in vivo”.
For `O=C(O)CCC/C=C\CCCCCCC/C=C\CCCCCO` [20-hydroxyeicosa-5(Z),14(Z)-dienoic acid], the “reversal of HET0016 blockade of U251 cell proliferation” value (U251 human glioma cells; 1 μM 20-HETE agonist + HET0016) was “about 70%” and the “increase of U251 cell proliferation” value (U251 human glioma cells) was “about 20%”.
In the case of `O=C(O)CCCC/C=C\CCCCCCC/C=C\CCCCO` [WIT003, 20-hydroxyeicosa-6(Z),15(Z)-dienoic acid], the “stimulation of 9L proliferation compared with EGF” value (9L rat gliosarcoma cells; 1 μM WIT003) is reported as “A similar degree of stimulation”, the “rescue of 9L cells from the inhibitory actions of HET0016” value (9L rat gliosarcoma cells; 1 μM WIT003 + 10 μM HET0016) is reported as “partially rescued” and the “effect on proliferation of HUVECs” value (HUVECs; 1 μM WIT003, 48 hours) is reported as “increased the proliferation rate; also recorded: increased proliferation of the cells”. For the same compound, the “stimulatory effect on proliferation of U251 cells” value (U251 human glioma cells; 0.1 μM WIT003, 48 hr) was “has no more stimulatory effect on proliferation of U251 cells than 50 ng/ml EGF”, the “rescue of U251 cells from the anti-proliferative effects of HET0016” value (U251 human glioma cells; 1 μM WIT003 + 10 μM HET0016, 48 h) was “reverses the effects of HET0016; also recorded: can rescue” and the “U251 proliferation with WIT003 and HET0016, increase above HET0016 alone” value (U251 human glioma cells; 1 μM WIT003 + 10 μM HET0016, 2 days) was “about 70%”. The “U251 growth stimulation compared with EGF” value (U251 human glioma cells; 1 μM WIT003, 48 h) was “comparable to the growth stimulating effect induced by 200 ng/ml EGF; also recorded: as much as 200 ng/ml EGF”, the “increase of U251 cell proliferation” value (U251 human glioma cells) was 20% and the “angiogenic response to the 20-HETE analog alone” value (rat cornea; 20 μg WIT003 per pellet, 7 days) was “induced an angiogenic response”.
For `CCCCCCCCCCCCCCCC(=O)O` [palmitic acid], the “angiogenic effect of fatty acid control alone” value (rat cornea; [1]) was “had no effect by itself”, the “influence of fatty acid control on angiogenic responses to VEGF” value (rat cornea; [1]) was “no difference in angiogenic responses to VEGF” and the “influence of fatty acid control on angiogenic responses to VEGF” value (rat cornea; up to 40 μg palmitic acid per pellet, listed as Palmitic acid) was “showed no ability to influence angiogenic responses to VEGF”.
With “EGF: epidermal growth factor, positive control for proliferation” the “increase of proliferation of 9L cells” value (9L rat gliosarcoma cells; EGF 200 ng/ml) was “about 30%”, the “effect on number of 9L cells” value (9L rat gliosarcoma cells; EGF 200 ng/ml, 24 and 48 hrs) was “increased the number of cells” and the “angiogenic response to growth factor alone” value (rat cornea) was “Vigorous angiogenic responses”.
In the case of VEGF, the “effect on proliferation of HUVECs” value (HUVECs; 250 ng/ml VEGF alone) is reported as “stimulated proliferation” and the “angiogenic response to growth factor alone” value (rat cornea) is reported as “marked neovascularization response; also recorded: Vigorous angiogenic responses”.
With “bFGF: basic fibroblast growth factor, purchased from R&D Systems” the “angiogenic response to growth factor alone” value (rat cornea) was “Vigorous angiogenic responses”.
